Reference: ChEMBL document CHEMBL1148994, “On the active principles of the spurge family, X. Skin irritants, cocarcinogens, and cryptic cocarcinogens from the latex of the manchineel tree” (J Nat Prod, 1984)

How the values were obtained:
[1] = Toxicity in NMRI mouse assessed as survival rate at 3.1 ug for 48 weeks measured after 24 weeks; format: organism-based; settings: in vivo, read-out: Activity
[2] = Toxicity in NMRI mouse back skin assessed as survival rate at 11.7 ug for 48 weeks measured after 24 weeks; format: organism-based, Zone of skin; settings: in vivo, topical or ocular, read-out: Activity
Mus musculus [3] = species: Mus musculus; assay: Toxicity in NMRI mouse assessed as drug level required for irritant activity in 50% animal assessed per ear; format: organism-based; settings: in vivo
[4] = Toxicity in NMRI mouse assessed as survival rate at 12.2 ug for 34 weeks measured after 24 weeks; format: organism-based; settings: in vivo, read-out: Activity
Mus musculus [5] = species: Mus musculus; assay: Carcinogenic activity in NMRI mouse assessed as number of tumor bearing mouse at 12.2 ug for 34 weeks measured after 12 weeks; format: ADME, organism-based; settings: in vivo, 2016 h
Mus musculus [6] = species: Mus musculus; assay: Carcinogenic activity in NMRI mouse assessed as number of tumors per mouse at 12.2 ug for 34 weeks measured after 12 weeks; format: ADME, organism-based; settings: in vivo, 2016 h

SMILES	survival at 4032 h [1] [%]	survival at 4032 h [2] [%]	Activity (Mus musculus [3]) [µg]	survival at 4032 h [4] [%]	Activity (Mus musculus [5])	Activity (Mus musculus [6])
C=C(C)[C@]12C[C@@H](C)[C@@]34O[C@](/C=C/C=C/CCCCCCCCC)(O[C@@H]1[C@@H]3[C@@H]1O[C@]1(CO)[C@@H](O)[C@]1(O)C(=O)C(C)=C[C@H]14)O2	96	96				
CCCCCCCCC/C=C/C=C/C=C/C(=O)O[C@@]12C[C@@H](C)[C@@]3(O)[C@H]([C@@H]1C2(C)C)[C@@H]1O[C@]1(CO)[C@@H](O)[C@]1(O)C(=O)C(C)=C[C@H]13 [MANCINELLIN]			0.15	100	Not Active	Not Active
CCCCCCCCCCCCCC(=O)O[C@@H]1[C@@H](C)[C@@]2(O)[C@@H](C=C(CO)C[C@]3(O)C(=O)C(C)=C[C@@H]23)[C@@H]2C(C)(C)[C@]12OC(C)=O [TETRADECANOYL PHORBOL ACETATE]	96		0.01			
